{"source": "patent US6525001B1", "about": "“Substituted pyrimidine and pyridine herbicides” (Mid-American Commercialization Corporation, priority 1997, dated 2003)", "format_in_all_cases": "in vivo", "key": {"[1]": {"system": "smallflower flatsedge (Cyperus difformis)", "assay": "Test B flood test", "summary_of_the_method": "(§1)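 Read-out is a visual response score from 0 (no effect) to 10 (complete control), assigned by comparison with untreated controls. Treatment was applied at the 2-leaf stage, and plants stayed in the greenhouse for twelve to sixteen days before scoring.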"}, "[2]": {"system": "duck salad (Heteranthera limosa)", "assay": "Test B flood test", "summary_of_the_method": "as §1"}, "[3]": {"system": "bamyardgrass (Echinochloa crus-galli)", "assay": "Test B flood test", "summary_of_the_method": "as §1"}, "[4]": {"system": "rice (Oryza sativa)", "assay": "Test B flood test", "summary_of_the_method": "as §1"}, "[5]": {"system": "pigweed (Amaranthus retroflexus)", "assay": "Test B pre-/postemergence", "set-up": "key: 0 is no effect; 10 is complete control", "summary_of_the_method": "(§2)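 Compounds in a surfactant-containing, non-phytotoxic solvent blend are applied to freshly planted seed (preemergence) and, concurrently, to seedlings of 2 to 18 cm at 1–4 leaves (postemergence). Plants stay in the greenhouse twelve to sixteen days and are then scored visually from 0 (no effect) to 10 (complete control).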"}, "[6]": {"system": "sugar beet (Beta vulgaris)", "assay": "Test B pre-/postemergence", "set-up": "key: 0 is no effect; 10 is complete control", "summary_of_the_method": "as §2"}, "[7]": {"system": "wheat (Triticum aestivum)", "assay": "Test B pre-/postemergence", "set-up": "key: 0 is no effect; 10 is complete control", "summary_of_the_method": "as §2"}, "[8]": {"system": "corn (Zea mays)", "assay": "Test B pre-/postemergence", "set-up": "key: 0 is no effect; 10 is complete control", "settings": "for Corn plant response rating: Preemergence", "summary_of_the_method": "as §2"}, "[9]": {"system": "cocklebur (Xanthium strumarium)", "assay": "Test B pre-/postemergence", "set-up": "key: 0 is no effect; 10 is complete control", "settings": "for Plant response rating, Cocklebur: Postemergence", "summary_of_the_method": "as §2"}, "[10]": {"system": "giant foxtail (Setaria faberii)", "assay": "Test B pre-/postemergence", "set-up": "key: 0 is no effect; 10 is complete control", "summary_of_the_method": "as §2"}, "[11]": {"system": "rape (Brassica napus)", "assay": "Test B pre-/postemergence", "set-up": "key: 0 is no effect; 10 is complete control", "summary_of_the_method": "as §2"}, "[12]": {"system": "bedstraw (Galium aparine)", "assay": "Test B pre-/postemergence", "set-up": "key: 0 is no effect; 10 is complete control", "settings": "for Bedstraw plant response rating: Preemergence", "summary_of_the_method": "as §2"}, "[13]": {"system": "broadleaf signalgrass (Brachiaria decumbens)", "assay": "Test B pre-/postemergence", "set-up": "key: 0 is no effect; 10 is complete control", "settings": "for B. signalgrass plant response rating: Preemergence", "summary_of_the_method": "as §2"}, "[14]": {"system": "velvetleaf (Abutilon theophrasti)", "assay": "Test B pre-/postemergence", "set-up": "key: 0 is no effect; 10 is complete control", "summary_of_the_method": "as §2"}, "[15]": {"system": "momingglory (Ipomoea hederacea)", "assay": "Test B pre-/postemergence", "set-up": "key: 0 is no effect; 10 is complete control", "summary_of_the_method": "as §2"}, "[16]": {"settings": "Rate 62 g/ha, Postemergence (flood test)"}, "[17]": {"settings": "Rate 125 g/ha, Postemergence section (flood test species)"}, "[18]": {"settings": "Rate 250 g/ha, Postemergence (flood test species)"}, "[19]": {"settings": "Rate 125 g/ha, Postemergence, flood test"}, "[20]": {"settings": "Rate 250 g/ha, Postemergence (so in the source)"}}}
{"compound": "CCc1cnc(-n2ccc(C(F)(F)F)n2)nc1Cc1cccc(C(F)(F)F)c1", "note": "[Compound 46]", "values": [{"measurement": "Plant response rating, S. Flatsedge", "setting": "[1]; [16]", "result": 4}, {"measurement": "S. Flatsedge plant response rating", "setting": "[1]; [17]", "result": 5}, {"measurement": "Plant response rating, S. Flatsedge", "setting": "[1]; [18]", "result": 7}, {"measurement": "Plant response rating, Ducksalad", "setting": "[2]; [16]", "result": 1}, {"measurement": "Plant response rating, Ducksalad", "setting": "[2]; [19]", "result": 1}, {"measurement": "Plant response rating, Ducksalad", "setting": "[2]; [18]", "result": 4}, {"measurement": "Plant response rating, Barnyardgrass", "setting": "[3]; [16]", "result": 2}, {"measurement": "Plant response rating, Barnyardgrass", "setting": "[3]; [19]", "result": 3}, {"measurement": "Plant response rating, Barnyardgrass", "setting": "[3]; [18]", "result": 4}, {"measurement": "Plant response rating, Rice", "setting": "[4]; [16]", "result": 1}, {"measurement": "Rice plant response rating", "setting": "[4]; [17]", "result": 2}, {"measurement": "Plant response rating, Rice", "setting": "[4]; [18]", "result": 4}, {"measurement": "Plant response rating, Redroot pigweed", "setting": "[5]; Rate 62 g/ha, Postemergence", "result": 9}, {"measurement": "Redroot pigweed plant response rating", "setting": "[5]; Rate 62 g/ha, Preemergence", "result": 10}, {"measurement": "Redroot pigweed plant response rating", "setting": "[5]; Rate 125 g/ha, Postemergence", "result": 9}, {"measurement": "Redroot pigweed plant response rating", "setting": "[5]; Rate 125 g/ha, Preemergence", "result": 10}, {"measurement": "Plant response rating, Redroot pigweed", "setting": "[5]; Rate 250 g/ha, Postemergence", "result": 10}, {"measurement": "Plant response rating, Redroot pigweed", "setting": "[5]; [20]", "result": 10}, {"measurement": "Plant response rating, Sugarbeets", "setting": "[6]; Rate 62 g/ha, Postemergence", "result": 10}, {"measurement": "Sugarbeets plant response rating", "setting": "[6]; Rate 62 g/ha, Preemergence", "result": 10}, {"measurement": "Sugarbeets plant response rating", "setting": "[6]; Rate 125 g/ha, Postemergence", "result": 10}, {"measurement": "Plant response rating, Sugarbeets", "setting": "[6]; Rate 125 g/ha, Preemergence", "result": 10}, {"measurement": "Plant response rating, Sugarbeets", "setting": "[6]; Rate 250 g/ha, Postemergence", "result": 10}, {"measurement": "Plant response rating, Sugarbeets", "setting": "[6]; [20]", "result": 10}, {"measurement": "Wheat plant response rating", "setting": "[7]; Rate 62 g/ha, Postemergence", "result": 3}, {"measurement": "Wheat plant response rating", "setting": "[7]; Rate 62 g/ha, Preemergence", "result": 1}, {"measurement": "Wheat plant response rating", "setting": "[7]; Rate 125 g/ha, Postemergence", "result": 3}, {"measurement": "Plant response rating, Wheat", "setting": "[7]; Rate 125 g/ha, Preemergence", "result": 3}, {"measurement": "Plant response rating, Wheat", "setting": "[7]; Rate 250 g/ha, Postemergence", "result": 4}, {"measurement": "Plant response rating, Wheat", "setting": "[7]; [20]", "result": 5}, {"measurement": "Plant response rating, Corn", "setting": "[8]; Rate 62 g/ha, Postemergence", "result": 2}, {"measurement": "Corn plant response rating", "setting": "[8]; Rate 62 g/ha", "result": 0}, {"measurement": "Plant response rating, Corn", "setting": "[8]; Rate 125 g/ha, Postemergence", "result": 2}, {"measurement": "Corn plant response rating", "setting": "[8]; Rate 125 g/ha", "result": 1}, {"measurement": "Plant response rating, Corn", "setting": "[8]; Rate 250 g/ha, Postemergence", "result": 3}, {"measurement": "Plant response rating, Corn", "setting": "[8]; [20]", "result": 3}, {"measurement": "Plant response rating, Cocklebur", "setting": "[9]; Rate 62 g/ha", "result": 8}, {"measurement": "Cocklebur plant response rating", "setting": "[9]; Rate 62 g/ha, Preemergence", "result": 10}, {"measurement": "Plant response rating, Cocklebur", "setting": "[9]; Rate 125 g/ha", "result": 9}, {"measurement": "Plant response rating, Cocklebur", "setting": "[9]; Rate 250 g/ha", "result": 9}, {"measurement": "Plant response rating, Giant foxtail", "setting": "[10]; Rate 62 g/ha, Postemergence", "result": 3}, {"measurement": "Giant foxtail plant response rating", "setting": "[10]; Rate 62 g/ha, Preemergence", "result": 9}, {"measurement": "Giant foxtail plant response rating", "setting": "[10]; Rate 125 g/ha, Postemergence", "result": 4}, {"measurement": "Giant foxtail plant response rating", "setting": "[10]; Rate 125 g/ha, Preemergence", "result": 9}, {"measurement": "Plant response rating, Giant foxtail", "setting": "[10]; Rate 250 g/ha, Postemergence", "result": 7}, {"measurement": "Plant response rating, Giant foxtail", "setting": "[10]; [20]", "result": 10}, {"measurement": "Plant response rating, Rape", "setting": "[11]; Rate 62 g/ha, Postemergence", "result": 9}, {"measurement": "Rape plant response rating", "setting": "[11]; Rate 62 g/ha, Preemergence", "result": 9}, {"measurement": "Rape plant response rating", "setting": "[11]; Rate 125 g/ha, Postemergence", "result": 9}, {"measurement": "Rape plant response rating", "setting": "[11]; Rate 125 g/ha, Preemergence", "result": 9}, {"measurement": "Plant response rating, Rape", "setting": "[11]; Rate 250 g/ha, Postemergence", "result": 9}, {"measurement": "Plant response rating, Rape", "setting": "[11]; [20]", "result": 10}, {"measurement": "Plant response rating, Bedstraw", "setting": "[12]; Rate 62 g/ha, Postemergence", "result": 8}, {"measurement": "Bedstraw plant response rating", "setting": "[12]; Rate 62 g/ha", "result": 8}, {"measurement": "Plant response rating, Bedstraw", "setting": "[12]; Rate 125 g/ha, Postemergence", "result": 9}, {"measurement": "Bedstraw plant response rating", "setting": "[12]; Rate 125 g/ha", "result": 9}, {"measurement": "Plant response rating, Bedstraw", "setting": "[12]; Rate 250 g/ha, Postemergence", "result": 10}, {"measurement": "Plant response rating, Bedstraw", "setting": "[12]; [20]", "result": 10}, {"measurement": "Plant response rating, B. signalgrass", "setting": "[13]; Rate 62 g/ha, Postemergence", "result": 3}, {"measurement": "B. signalgrass plant response rating", "setting": "[13]; Rate 62 g/ha", "result": 9}, {"measurement": "Plant response rating, B. signalgrass", "setting": "[13]; Rate 125 g/ha, Postemergence", "result": 4}, {"measurement": "B. signalgrass plant response rating", "setting": "[13]; Rate 125 g/ha", "result": 9}, {"measurement": "Plant response rating, B. signalgrass", "setting": "[13]; Rate 250 g/ha, Postemergence", "result": 5}, {"measurement": "Plant response rating, B. signalgrass", "setting": "[13]; Rate 250 g/ha, Postemergence as printed in head r139 (second section for compounds 26-50)", "result": 9}, {"measurement": "Plant response rating, Velvetleaf", "setting": "[14]; Rate 62 g/ha, Postemergence", "result": 9}, {"measurement": "Velvetleaf plant response rating", "setting": "[14]; Rate 62 g/ha, Preemergence", "result": 10}, {"measurement": "Velvetleaf plant response rating", "setting": "[14]; Rate 125 g/ha, Postemergence", "result": 9}, {"measurement": "Plant response rating, Velvetleaf", "setting": "[14]; Rate 125 g/ha, Preemergence", "result": 10}, {"measurement": "Plant response rating, Velvetleaf", "setting": "[14]; Rate 250 g/ha, Postemergence", "result": 9}, {"measurement": "Plant response rating, Velvetleaf", "setting": "[14]; [20]", "result": 10}, {"measurement": "Plant response rating, Morningglory", "setting": "[15]; Rate 62 g/ha, Postemergence", "result": 9}, {"measurement": "Morningglory plant response rating", "setting": "[15]; Rate 62 g/ha, Preemergence", "result": 10}, {"measurement": "Morningglory plant response rating", "setting": "[15]; Rate 125 g/ha, Postemergence", "result": 10}, {"measurement": "Morningglory plant response rating", "setting": "[15]; Rate 125 g/ha, Preemergence", "result": 10}, {"measurement": "Plant response rating, Morningglory", "setting": "[15]; Rate 250 g/ha, Postemergence", "result": 10}, {"measurement": "Plant response rating, Morningglory", "setting": "[15]; [20]", "result": 10}]}
